Measured values reported in patent US6831069B2, “Pyrrolo[2,3-d]pyrimidine nucleoside analogs” (priority 1999, dated 2004).

Columns and labels:
CD3+ T cells = assay: Viability by propidium iodide exclusion; type: cell-based, human
Procedure: For determination of cytokine protein levels, T-cells (1×10^6 cells in a volume of 1 ml) were activated by the addition of 10 ng PMA plus 0.5 μg ionomycin (both from Calbiochem, La Jolla, Calif.) and incubated in 24 well plates in the presence of 0 to 20 μM nucleoside for up to 48 h at 37° C. and 5% CO2 in a humidified incubator. Following activation, supernatants were analysed for cell-derived cytokine production. For proliferation and viability studies, the protocol as above was modified to a 96 well-plate format using 0.2×10^6 cells in a volume of 0.2 ml and activation with 2 ng PMA and 0.1 μg ionomycin. In separate experiments, 5×10^6 T cells in 2 ml were activated with 20 ng PMA plus 1 μg ionomycin. Here total RNA was isolated from T cells following 6-24 h incubation and analyzed by RT-PCR to determine mRNA levels of various cytokines and inflammatory mediators. […]
T cell proliferative responses were assessed by measuring [3H]-thymidine (1 μCi, ICN, Irvine, Calif.) incorporation for the last 16 h of each assay. Cells were harvested onto filters and DNA synthesis was measured following scintillation counting on a Wallac Betaplate counter (Perkin-Elmer/Wallac, Gaithersburg, Md.). Viability was assessed by propidium iodide (5 μg/ml) exclusion in untreated and nucleoside-treated human T cells stained with FITC-CD3 (Becton Dickinson, San Jose, Calif.). […]

[1] = tested on: activated peripheral human T cells; assay: Extracellular cytokine analyses (ELISA) in PMA-ION activated peripheral human T cells; type: cell-based; set-up: secreted IL-4, increase over activated control / IFNγ, decrease over activated control: concentration or dose not given beside the values; conditions: for heightened IL-4 production / reduced levels of secreted IFNγ: PMA-ION; for IFNγ, decrease over activated control / secreted IL-4, increase over activated control: 48 h PMA-ION
PHA activated PBMC = assay: ELISA spot assay, number of cytokine producing cells; type: cell-based, human; conditions: 10 μM
[2] = 10 μM, 48 h, representative of five donors
[3] = 10 μM, T cells of 16 RA patients
[4] = 10 μM, T cells of 16 normal donors

N=C(N)c1cn([C@@H]2O[C@H](CO)[C@@H](O)[C@H]2O)c2nc[nH]c(=O)c12 [ICN 10776, 7-β-D-ribofuranosyl-4-oxopyrrolo-[2,3-d]pyrimidine-5-carboxamidine]
viability of resting CD3+ T cells (CD3+ T cells; 20 μM, 48 h incubation, decrease from 95%): 85% | viability of PMA-ION activated CD3+ T cells versus no nucleoside (CD3+ T cells; 0.2 to 20 μM, 8 h, 24 h, 48 h): no sign difference | peak enhancement of PMA-ION-induced IL-4 level [1, 2]: 166% | peak enhancement of PMA-ION-induced IL-5 level [1, 2]: 77% | heightened IL-4 production [1, 3]: 192% | reduced levels of secreted IFNγ [1, 3]: 63% | heightened IL-4 production [1, 4]: 266% | reduced levels of secreted IFNγ [1, 4]: 43% | peak suppression of PMA-ION-induced IFNγ level ([1]; 20 μM, 48 h): 72% | peak suppression of PMA-ION-induced IL-2 level ([1]; 20 μM, 48 h): 62% | peak suppression of PMA-ION-induced TNFα level ([1]; 20 μM, 48 h): 78% | IFNγ, decrease over activated control ([1]; CD4+ T cells): 81% | secreted IL-4, increase over activated control ([1]; CD4+ T cells): 994% | IFNγ, decrease over activated control ([1]; CD8+ T cells): 37% | secreted IL-4, increase over activated control ([1]; CD8+ T cells): 228% | IFNγ, decrease over activated control ([1]; total T cells): 52% | secreted IL-4, increase over activated control ([1]; total T cells): 320% | number of IL-2-producing cells (PHA activated PBMC; 24 h): dramatic fall | number of IFNγ-producing cells (PHA activated PBMC; 48 h): dramatic fall | number of IL-4 producing cells (PHA activated PBMC; 48 h): substantial increase | number of IL-5 producing cells (PHA activated PBMC; 48 h): substantial increase
